Experiments:
MMP13 = experiment: Gene expression profile using RTQ-PCR: MMP13; format: cell-based, human; conditions: 3 μM
Experimental: (§1) The effect of the compound of example 7 was measured in stimulated untreated cells from the monocytic cell line (THP-1), human monocytes and synovial cells from rheumatoid arthritis patient. The effect of the compound in the THP-1 cell line was measured in terms of gene expression and was expressed as fold changes as compared to the cell stimulated control with no drug treatment.
(§2) THP-1 cells, human monocytes and synovial cells were treated with compound of example 7 or vehicle (0.5% DMSO). Total RNA isolation using a commercial RNA extraction kit (Qiagen Corporation, Germany) The first-strand cDNA was synthesized from total RNA using first strand cDNA synthesis kit from Invitrogen Corporation (California, USA). This was followed by real time quantitative polymerase chain reaction (RTQ PCR) using gene specific primers and standard thermal program of initial denaturation at 95° C. for 5 min and cycles of 95° C. for 10 seconds, followed by 60° C. for 30 seconds (Realplex PCR machine from Eppendorf, Germany). Quantitative measurement of products made during PCR cycles was normalized against a housekeeping gene (Actin) and was used to measure the gene expression as fold changes as compared to respective control.

p38 MAPK = biological target: T1, p38 MAPK (Homo sapiens, UniProt Q16539); experiment: p38 MAPK assay in anisomycin stimulated Jurkat T-cells (Western blot); format: cell-based; conditions: 3 μM, phospho-p38 Western blot
T1 construct: endogenous in cells; host or cells: Jurkat T-cells (ATCC TIB-152, clone E6-1)
T1 sequence (Q16539 whole entry): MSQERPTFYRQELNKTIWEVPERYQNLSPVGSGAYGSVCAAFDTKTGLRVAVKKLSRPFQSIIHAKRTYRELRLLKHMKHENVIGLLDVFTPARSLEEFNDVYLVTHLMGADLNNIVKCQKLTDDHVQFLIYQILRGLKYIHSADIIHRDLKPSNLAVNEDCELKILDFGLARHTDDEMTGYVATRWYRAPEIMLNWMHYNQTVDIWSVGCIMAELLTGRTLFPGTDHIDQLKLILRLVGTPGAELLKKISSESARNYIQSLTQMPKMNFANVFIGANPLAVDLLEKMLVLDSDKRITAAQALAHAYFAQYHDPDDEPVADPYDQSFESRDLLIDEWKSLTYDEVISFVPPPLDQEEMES
Experimental: The method for identifying inhibitors of p38 MAPK was designed as in reference, Journal of Lipid Research, 40, 1911-1919, (1999), the disclosure of which is incorporated by reference for the teaching of the assay.
Human Jurkat T-cells (ATCC number: TIB-152, clone E6-1, USA) were cultured in culture medium (RPMI 1640 culture medium supplemented with 10% FBS, 100 U/mL penicillin and 100 μg/mL streptomycin) at 37° C., 5% CO2. Culture medium was changed every 2-3 days and always a day prior to the experiment. On the day of the experiment, Jurkat cells were pre-treated with vehicle or test compound at 3 μM, 10 times the IC50 value for IL-6 inhibition in human monocyte assay, for 1 h at 37° C. Subsequently, the cells were stimulated with anisomycin (10 μg/mL; Sigma, USA) for 30 min SB 203580 (1 PM; Sigma, USA) was used as a standard. The sample preparation of the test compound, anisomycin and SB 203580 is as follows: a stock solution (20 mM) of the test compound was prepared in DMSO. […]
Following the stimulation, cells were harvested, rapidly washed with ice-cold PBS and lysed with cold Cell Lytic buffer (Sigma, USA) supplemented with complete protease inhibitor cocktail (Roche, USA) and sodium orthovanadate (Sigma, USA). […] Aliquots of the resulting extracts were analyzed for their protein content using the Coomassie Plus Protein Assay Reagent (Pierce, USA) as per manufacturer's instructions. […]

IL-6 = experiment: Human monocyte assay (LPS-induced): IL-6; format: cell-based; conditions: LPS stimulated human monocytes, 5 h
Excerpt: The assay was designed as in reference, Physiological Research, 52, 593-598, (2003), the disclosure of which is incorporated by reference for the teaching of the assay.
The objective of the assay is to determine whether compounds of the present invention—mediated inhibition of LPS-induced cytokines from monocytic THP-1 cell line translates to physiologically relevant human cells. Accordingly, the effect of compounds of the present invention on LPS—induced cytokine production from freshly isolated human monocytes was ascertained.
Peripheral blood was collected from healthy donors into potassium EDTA vacutainer tubes (BD Biosciences, USA). hPBMCs were isolated using density gradient separation (Histopaque-1077; Sigma, USA) and suspended in assay medium which is RPMI culture medium (Sigma, USA) containing 10% heat inactivated FBS (JRH Biosciences, Australia), 100 U/mL penicillin (Sigma, USA) and […] streptomycin (Sigma, USA). Monocytes in the hPBMCs were counted using a Coulter Counter following which the cells were resuspended at 2×10^5 monocytes/mL of assay medium. A cell suspension containing 2×10^4 monocytes was aliquoted per well of a 96-well plate (Nunc, USA). Subsequently, the hPBMCs were incubated for 4-5 h at 37° C., 5% CO2. During the incubation, the monocytes adhered to the bottom of 96-well plate. Following the incubation, the non-adherent lymphocytes were washed and assay medium was added to adherent monocytes. After 48 h of incubation at 37° C., 5% CO2, monocytes were pre-treated with various concentrations of test compound (prepared as 20 mM stock in DMSO; 1 μL of […] concentrated solution of test compound was dissolved in 200 μL cell suspension to achieve a final concentration of 0.03, 0.1, 0.3, 1, 3, 10, 30 and 100 μM) or vehicle (0.5% DMSO) or 10 μM dexamethasone (standard IL-6 and TNF-α inhibitor, Sigma, USA) for 30 min at 37° C., 5% CO2 and stimulated with 1 μg/mL LPS (Escherchia coli 0111:B4, Sigma, USA). The cells were then incubated for 5 h at 37° C., 5% CO2 following which supernatants were collected, stored at −70° C. and were assayed later for IL-6, and TNF-α by ELISA (OptiEIA ELISA sets, BD Biosciences, USA). The IC50 values were calculated by a nonlinear regression method using Graph Pad software (Prism 3.03).

IL-1β = experiment: Gene expression profile using RTQ-PCR: IL-1β; format: cell-based, human; conditions: 3 μM
Experimental: as §1, §2

[1] = Human monocytes, 3 h, ± SE, N = 3

In the case of C/C=C/C(O)C(C)/C=C/C(=N\O)C(C)C(O)C(C)C1OC(=O)/C(OC)=C/C(C)=C/C(C)C(O)C(CC)C(O)C(C)C/C(C)=C/C=C/C1OC (centres unmarked) [Compound of example 7, (3Z,5E,13E,15E)-18-((5Z,6E,10E)-3,9-Dihydroxy-5-(hydroxymino)-4,8-dimethyldodeca-6,10-dien-2-yl)-9-ethyl-8,10-dihydroxy-3,17-dimethoxy-5,7,11,13-tetramethyl oxacyclooctadeca-3,5,13,15-tetraen-2-one], the MMP13 gene expression (MMP13; [1]) is reported as −2.2 + 2.0 log fold change, the MMP13 gene expression (MMP13; Synovial cells, 12 h, N = 1) is reported as −4.0 log fold change and the MMP13 gene expression (MMP13; THP-1 cells, 12 h, ± SE, N = 3) is reported as −4.1 + 3.5 log fold change. The “inhibition of p38 MAP kinase” value (p38 MAPK) was “did not inhibit”, the IC50 (IL-6) was 300 nM and the IL-1β gene expression (IL-1β; [1]) was −4.0 log fold change. For the same compound, the IL-1β gene expression (IL-1β; Synovial cells, 12 h, N = 1) was −0.3 log fold change and the IL-1β gene expression (IL-1β; THP-1 cells, 12 h, ± SE, N = 3) was −0.6 + 0.7 log fold change.

Source: patent publication US20120225889A1, “USE OF MACROCYCLIC LACTONE DERIVATIVES FOR THE TREATMENT OF INFLAMMATORY DISORDERS” (PIRAMAL LIFE SCIENCES LIMITED, priority 2010, published 2012)
